{
  "source": "paper PMC7403827",
  "about": "(Clinical and Translational Medicine, 2020)",
  "tested_on": "EGFR‐mutant advanced non‐squamous NSCLC",
  "assay": "Antitumor response (RECIST 1.1), PFS and OS",
  "conditions": "for median PFS: Kaplan‐Meier",
  "key": {"[1]": {"conditions": "Apatinib Dose Cohort 250mg + gefitinib 250 mg, evaluable patients"}, "[2]": {"conditions": "Apatinib Dose Cohort 500mg + gefitinib 250 mg, evaluable patients"}, "[3]": {"conditions": "Total, both apatinib dose cohorts (n = 11)"}},
  "description": "Other endpoints included objective response rate (ORR) and disease control rate (DCR), progression‐free survival (PFS), and overall survival (OS). […] Combination therapy was continued until the status of progression disease, unbearable toxicity, withdrawal of informed consent form or discontinuation that was at the discretion of the principal investigator (see Supporting Information).\nAdverse events (AEs) in line with the version 4.0 of National Cancer Institute's Common Terminology Criteria for Adverse Events (CTCAE 4.0) were evaluated by the investigators. AEs were strictly recorded from the timepoint that ICF was obtained to 28 days after the finish of study. Imaging examinations was conducted before treatment, at the finish of the first follow‐up, and every other two follow‐ups afterward by taking the same examinations. Response of tumor was assessed based on the RECIST 1.1 guidelines. Primary assessment for antitumor response: (a) ORR, defining as the proportion of participants that achieved a complete response (CR) or a partial response (PR); (b) disease control rate (DCR), defining as the proportion of participants reached a status of CR or PR or stable disease (SD). After 4 weeks, best overall response (BOR) was confirmed.\nPatients in the ITT analysis who had complete safety records were pooled in the safety set (SS). The qualitative and quantitative data were summarized with the descriptive statistics. Efficacy was also assessed in the ITT analysis. The Kaplan‐Meier method described PFS and OS. Survival distribution differences were evaluated by the log‐rank test. […] Fisher's exact test compared the response rate in the various subgroups. Two‐sided tests were applied. […] All statistical analyses and graphs were made by the Statistical Package for Social Sciences (SPSS) 23.0 and GraphPad Prism 7.",
  "data": [
    {"smiles": "N#CC1(c2ccc(NC(=O)c3cccnc3NCc3ccncc3)cc2)CCCC1", "note": "[Apatinib]", "values": [
      {"measurement": "CR, patients", "setting": "[1]", "value": 0},
      {"measurement": "Disease Control CR+PR+SD", "setting": "[1]", "value": "6 (100.0) n (%)"},
      {"measurement": "Objective Response CR+PR", "setting": "[1]", "value": "5 (83.3) n (%)"},
      {"measurement": "PD, patients", "setting": "[1]", "value": 0},
      {"measurement": "PR, patients", "setting": "[1]", "value": 5},
      {"measurement": "CR, patients", "setting": "[2]", "value": 0},
      {"measurement": "Disease Control CR+PR+SD", "setting": "[2]", "value": "4 (80.0) n (%)"},
      {"measurement": "Objective Response CR+PR", "setting": "[2]", "value": "4 (80.0) n (%)"},
      {"measurement": "PD, patients", "setting": "[2]", "value": 1},
      {"measurement": "PR, patients", "setting": "[2]", "value": 4},
      {"measurement": "median PFS", "setting": "Cohort A (apatinib 500 mg + gefitinib 250 mg)", "value": 19.2, "unit": "months"},
      {"measurement": "ORR", "setting": "Cohort A: apatinib 500 mg + gefitinib 250 mg (4/5)", "value": 80, "unit": "%"},
      {"measurement": "median PFS", "setting": "Cohort B (apatinib 250 mg + gefitinib 250 mg)", "value": 13.4, "unit": "months"},
      {"measurement": "ORR", "setting": "Cohort B: apatinib 250 mg + gefitinib 250 mg (5/6)", "value": 83.3, "unit": "%"},
      {"measurement": "CR, patients", "setting": "[3]", "value": 0},
      {"measurement": "Disease Control CR+PR+SD", "setting": "[3]", "value": "10 (90.9) n (%)"},
      {"measurement": "Objective Response CR+PR", "setting": "[3]", "value": "9 (81.8) n (%)"},
      {"measurement": "PD, patients", "setting": "[3]", "value": 1},
      {"measurement": "PR, patients", "setting": "[3]", "value": 9},
      {"measurement": "DCR", "setting": "apatinib 250 mg group + gefitinib 250 mg (6/6)", "value": 100, "unit": "%"},
      {"measurement": "DCR", "setting": "apatinib 500 mg group + gefitinib 250 mg (4/5)", "value": 80.0, "unit": "%"}
    ]}
  ]
}
